Test results taken from patent publication US20240284907A1, “NOVEL DERIVATIVES OF NON-CODED AMINO ACIDS AND THEIR USE AS HERBICIDES” (FortePhest LTD., priority 2021, published 2024).

Tested on: Seeds of Lettuce R. (Super-Jericho)
Assay: Filter paper bioassay with lettuce seeds: germination and early plant development, Minimal Effective Concentration (MEC)
Type: in vivo
Conditions: lettuce seeds on filter paper, 0 to 1 mmol/l, visually assessed after 6 days
Description: Materials: Seeds of Lettuce R. (Super-Jericho, non-sterilized) were obtained from Ben Shahar Moshe Ltd., 99% purity. The test compounds listed in the Table 2 below were synthetized de novo or purchased from different vendors.
Filter Paper Bioassays with Lettuce seeds: The protocol is following Bertin et al. 2009 and Movellan et al. 2014 with specified modifications as described below.
Seeds were placed on Whatman no. 1 filter paper (Whatman, Middlesex, U.K.) in Petri dishes (10 seeds per plate) with 2.0 ml of aqueous solution of a test material in concentration ranged from 0 (control) to 1 mmol/l were placed in a tray tilted at 45[…]. The trays were kept in dark for 48 hours and then transferred to the growth chamber with 6/18 dark/light cycle for 4 days. Each experiment was performed at least with two repeats.
The development of plants' radicle and shoots were visually assessed 6 days after the beginning of the test to determine Minimal Effective Concentration (MEC) of a test material. In the context of the invention, MEC is defined as the lowest concentration level of a test material that caused deviation (absence of germination or malformation of radicle or shoots) from the plant's development in the Control group.

| Molecule | Score (activity score of Minimal Effective Concentration, MEC) |
| --- | --- |
| 2,2-difluoro-2-[4-(trifluoromethyl)pyrimidin-2-yl]acetic acid [compound 6652] | Moderate (0.1 mM) |
| 2,2-difluoro-2-{2-[3-fluoro-5-(trifluoromethyl)pyridin-2-yl]-1,3-thiazol-4-yl}acetic acid [compound 5736] | Moderate (0.1 mM) |
| 2,2-difluoro-2-{6-[2-(trifluoromethyl)-1,3-thiazol-4-yl]pyridin-2-yl}acetic acid [compound 6658] | Moderate (0.1 mM) |
| 2-(1,2,3-thiadiazol-4-yl)acetic acid [compound 5748] | Moderate (0.1 mM) |
| 2-(1H-1,2,4-triazol-5-yl)ethan-1-amine [compound 592] | weak |
| 2-(2,5-dichloro-1,3-thiazol-4-yl)ethan-1-amine [compound 5691] | Strong (0.01 mM) |
| 2-(2,5-dichlorothiophen-3-yl)-2-oxoacetic acid [compound 5631] | Weak (Higher than 0.1 mM) |
| 2-(2,6-dibromopyridin-4-yl)ethan-1-amine [compound 6612] | Moderate (0.1 mM) |
| 2-(2,6-dichloropyridin-4-yl)-2,2-difluoroacetic acid [compound 6628] | Weak (Higher than 0.1 mM) |
| 2-(2-bromopyridin-4-yl)ethan-1-amine [compound 688] | Weak (Higher than 0.1 mM) |
| 2-(2-chloro-1,3-benzothiazol-4-yl)-2,2-difluoroacetic acid [compound 5786] | Moderate (0.1 mM) |
| 2-(2-ethoxyethoxy)ethyl(2-chloro-1,3-thiazol-4-yl)acetate [compound 5800] | Strong (0.01 mM) |
| 2-(2-phenoxypyridin-4-yl)ethan-1-amine [compound 6625] | Weak (Higher than 0.1 mM) |
| 2-(3-chloro-1,2-thiazol-4-yl)-2,2-difluoroacetic acid [compound 5773] | Moderate (0.1 mM) |
| 2-(4-methylphenyl)-2-oxoethyl(2-chloro-1,3-thiazol-4-yl)acetate [compound 5795] | Moderate (0.1 mM) |
| 2-(6-bromopyridin-3-yl)-2,2-difluoroacetic acid [compound 6620] | Strong (0.01 mM) |
| 2-(6-bromopyrimidin-4-yl)ethan-1-amine [compound 6621] | Strong (0.01 mM) |
| 2-(thiophen-3-yl)ethane-1-thiol [compound 5601] | Moderate (0.1 mM) |
| 2-[2-(2,5-dichlorothiophen-3-yl)ethyl]-1,4,5,6-tetrahydropyrimidin-5-ol [compound 5777] | Weak (Higher than 0.1 mM) |
| 2-[2-(4-chloro-2-fluorophenyl)-1,3-thiazol-4-yl]-2,2-difluoroacetic acid [compound 5734] | Moderate (0.1 mM) |
| 2-amino-2-(2,5-dichlorothiophen-3-yl)acetic acid [compound 5659] | Weak (Higher than 0.1 mM) |
| 2-amino-3-(1H-1,2,4-triazol-1-yl)propanoic acid dihydrochloride [compound 5633, 2-amino-3-(1H-1,2,4-triazol-1-yl)propanoic acid dihydrochloride [HCl]] | Strong (0.01 mM) |
| 2-bromo-6-phenoxypyridine [compound 6645] | Strong (0.01 mM) |
| 2-bromo-N-[(2,5-dichlorothiophen-3-yl)methyl]pyridine-4-carboxamide [compound 5614] | Moderate (0.1 mM) |
| 2-bromopyridine-4-carboxamide [compound 6600] | Weak (Higher than 0.1 mM) |
| 2-bromopyridine-4-carboxylic acid [compound 692] | Weak (Higher than 0.1 mM) |
| 2-carbamimidamido-N-[2-(2,5-dichlorothiophen-3-yl)ethyl]acetamide [compound 5726] | Moderate (0.1 mM) |

| Molecule | Score (activity score of Minimal Effective Concentration, MEC) |
| --- | --- |
| 2-{2-[3-fluoro-5-(trifluoromethyl)pyridin-2-yl]-1,3-thiazol-4-yl}acetic acid [compound 5770] | Weak (Higher than 0.1 mM) |
| 2-{[(2,5-dichlorothiophen-3-yl)methyl]amino}acetic acid [compound 5615] | Weak (Higher than 0.1 mM) |
| 3-(1H-1,2,4-triazol-1-yl)propanoic acid [compound 5628] | Weak (Higher than 0.1 mM) |
| 3-(thiophen-3-yl)propan-1-amine [compound 593] | weak |
| 3-(thiophen-3-yl)propane-1,2-diol [compound 5604] | Moderate (0.1 mM) |
| 3-{[(2,5-dichlorothiophen-3-yl)methyl]amino}-2,2-difluoropropanoic acid [compound 5624] | Weak (Higher than 0.1 mM) |
| 4-(2,5-dichlorothiophen-3-yl)butanoic acid [compound 597] | Moderate (0.1 mM) |
| 6-bromopyridine-2-carbonitrile [compound 6670] | Weak (Higher than 0.1 mM) |
| O=C(O)C(O)Cc1cc(Cl)sc1Cl (stereo not drawn) [compound 585, 3-(2,5-dichlorothiophen-3-yl)-2-hydroxypropanoic acid] | moderate |
| NCc1cc(Cl)sc1Cl [compound 587, 1-(2,5-dichlorothiophen-3-yl)methanamine] | weak |
| NCCc1ccsc1 [compound 588, 2-(thiophen-3-yl)ethan-1-amine] | weak |
| OCCc1ccsc1 [compound 589, 2-(thiophen-3-yl)ethan-1-ol] | strong |
| NCC(O)c1ccsc1 (stereo not drawn) [compound 590, 2-amino-1-(thiophen-3-yl)ethan-1-ol] | weak |
| NC(=O)Cc1ccsc1 [compound 591, 2-(thiophen-3-yl)acetamide] | moderate |
| O=C(O)c1nc(Cl)sc1Cl [compound 596, 2,5-dichloro-1,3-thiazole-4-carboxylic acid] | Weak (Higher than 0.1 mM) |
| CCOC(=O)C(NC(C)=O)C(F)(F)c1nnc(CCl)s1 (stereo not drawn) [compound 598, ethyl3-[5-(chloromethyl)-1,3,4-thiadiazol-2-yl]-2-acetamido-3,3-difluoropropanoate] | Weak (Higher than 0.1 mM) |
| Cl.NC(Cc1n[nH]c2ccccc12)C(=O)O (stereo not drawn) [compound 599, 2-amino-3-(1H-indazol-3-yl)propanoic acid hydrochloride[HCl]] | Moderate (0.1 mM) |
| O=C(O)C(O)Cc1ccnc(Br)c1 (stereo not drawn) [compound 680, 3-(2-bromopyridin-4-yl)-2-hydroxypropanoic acid] | Weak (Higher than 0.1 mM) |
| Brc1cc(CNCc2ccnc(Br)c2)ccn1 [compound 686, bis[(2-bromopyridin-4-yl)methyl]amine] | Weak (Higher than 0.1 mM) |
| BrCCc1ccnc(Br)c1 [compound 690, 2-bromo-4-(2-bromoethyl)pyridine] | Weak (Higher than 0.1 mM) |
| O=C(O)/C=C/c1ccc(Cl)nc1Cl [compound 694, (2E)-3-(2,6-dichloropyridin-3-yl)prop-2-enoic acid] | Moderate (0.1 mM) |
| NCCSCCc1ccsc1 [compound 5603, 2-{[2-(thiophen-3-yl)ethyl]sulfanyl}ethan-1-amine] | Weak (Higher than 0.1 mM) |
| O=C(NCC(F)(F)C(=O)O)c1cc(Cl)sc1Cl [compound 5605, 3-[(2,5-dichlorothiophen-3-yl)formamido]-2,2-difluoropropanoic acid] | Weak (Higher than 0.1 mM) |
| O=C(O)CCc1cc(Cl)sc1Cl [compound 5606, 3-(2,5-dichlorothiophen-3-yl)propanoic acid] | Moderate (0.1 mM) |
| O=C(O)/C=C/c1cncs1 [compound 5608, (2E)-3-(1,3-thiazol-5-yl)prop-2-enoic acid] | Weak (Higher than 0.1 mM) |
| O=C(Cl)c1nc(Cl)sc1Cl [compound 5613, 2,5-dichloro-1,3-thiazole-4-carbonylchloride] | Weak (Higher than 0.1 mM) |
| CC(=O)Nc1nc(Cl)sc1Cl [compound 5618, N-(2,5-dichloro-1,3-thiazol-4-yl)acetamide] | Moderate (0.1 mM) |
